Assays:
Assay in all cases: relative viability (nuclei count vs DMSO), 5 days (fraction); higher = more cells survive
[1] = compound: O=C(C[C@H]1NCCC[C@@H]1O)Cn1cnc2cc(Br)c(Cl)cc2c1=O (racemic) [Halofuginone] + CC(=O)Nc1cccc(-n2c(=O)n(C3CC3)c(=O)c3c(Nc4ccc(I)cc4F)n(C)c(=O)c(C)c32)c1 [Trametinib] (partner 0.02 µM)
In short: (§1)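 A single step with final 0.05% Triton X-100, 1% formaldehyde and 1 ug/ml Hoechst fixed the cells and stained nuclei 5 days after treatment. Lung cancer cell lines in 1536-well plates had been treated by pin tool the day after seeding with one drug alone or a fixed anchor-drug dose plus five library-drug doses (not always all listed) in √10 steps, and nuclei were counted on 4× images. Relative viability is the ratio of nuclei in treated wells to nuclei in vehicle wells, taken as the median of duplicate plates.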

[2] = compound: COc1cc2c(Oc3ccc4[nH]c(C)cc4c3F)ncnc2cc1OCCCN1CCCC1 [Cediranib] + COc1cccc2cc(-c3nc([C@H]4CC[C@H](C(=O)O)CC4)n4ncnc(N)c34)[nH]c12 [OSI-027] (partner 0.5 µM)
In short: as §1

[3] = compound: O=C(C[C@H]1NCCC[C@@H]1O)Cn1cnc2cc(Br)c(Cl)cc2c1=O (racemic) [Halofuginone] + Cc1nc(Nc2ncc(C(=O)Nc3c(C)cccc3Cl)s2)cc(N2CCN(CCO)CC2)n1 [Dasatinib] (partner 0.075 µM)
In short: as §1

Cell Line | relative viability ([1]; first compound 0.001 µM) | relative viability ([1]; first compound 0.003162 µM) | relative viability ([1]; first compound 0.01 µM) | relative viability ([1]; first compound 0.03162 µM) | relative viability ([1]; first compound 0.1 µM) | relative viability ([2]; first compound 0.04 µM) | relative viability ([2]; first compound 0.1265 µM) | relative viability ([2]; first compound 0.4 µM) | relative viability ([2]; first compound 1.265 µM) | relative viability ([2]; first compound 4 µM) | relative viability ([3]; first compound 0.001 µM) | relative viability ([3]; first compound 0.003162 µM) | relative viability ([3]; first compound 0.01 µM) | relative viability ([3]; first compound 0.03162 µM) | relative viability ([3]; first compound 0.1 µM)
NCI-H2023 | 0.625 | 0.482 | 0.558 | 0.202 | 0.0677 | 0.342 | 0.402 | 0.374 | 0.385 | 0.415 | 0.649 | 0.609 | 0.507 | 0.241 | 0.0614
NCI-H2228 | 0.662 | 0.4 | 0.436 | 0.39 | 0.0996 | 0.552 | 0.767 | 0.496 | 0.335 | 0.68 | 0.622 | 0.488 | 0.48 | 0.236 | 0.0746
SK-LU-1 | 0.572 | 0.504 | 0.559 | 0.461 | 0.321 | 0.343 | 0.39 | 0.338 | 0.257 | 0.33 | 0.204 | 0.211 | 0.198 | 0.183 | 0.137
SK-MES-1 | 0.554 | 0.53 | 0.511 | 0.499 | 0.232 | 0.666 | 0.633 | 0.608 | 0.542 | 0.788 | 0.38 | 0.429 | 0.446 | 0.283 | 0.117
SW 1573 | 0.563 | – | 0.596 | 0.23 | 0.0886 | 0.682 | 0.644 | 0.604 | 0.427 | 0.662 | 0.576 | 0.579 | 0.481 | 0.241 | 0.0881

From the supplement of paper PMC10307832
